Results taken from US20250145619A1, “KHK INHIBITOR, PREPARATION METHOD THEREFOR AND USE THEREOF” (YOUNGENE THERAPEUTICS CO., LTD, priority 2022, published 2025).

Molecular target: KHK—C (Homo sapiens (Human), UniProt P50053)
Test: KHK—C ADP-Glo kinase inhibitory activity assay
Type: biochemical
Conditions: 1 nM KHK—C, 200 μM D-Fructose, 100 μM ATP, ADP-Glo luminescence
Text: (KHK—C ADP-Glo Kinase Inhibitory Activity Assay)
Y=Bottom+(Top−Bottom)/(1+10^((LogIC50−X)×HillSlope)) • X: Log value of compound concentration • Y: Inhibition ratio (%)
[formula] • Negative control: DMSO

Chain of KHK—C (P50053 whole entry): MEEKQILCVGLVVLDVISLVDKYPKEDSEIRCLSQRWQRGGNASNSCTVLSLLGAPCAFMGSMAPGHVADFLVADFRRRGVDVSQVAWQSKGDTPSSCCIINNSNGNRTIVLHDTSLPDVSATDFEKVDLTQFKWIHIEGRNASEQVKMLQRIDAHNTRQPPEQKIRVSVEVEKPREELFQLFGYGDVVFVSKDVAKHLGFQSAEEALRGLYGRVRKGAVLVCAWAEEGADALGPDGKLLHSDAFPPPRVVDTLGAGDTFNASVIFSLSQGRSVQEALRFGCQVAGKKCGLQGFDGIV

SMILES | IC50 [nM]
C[C@H]1CCN1c1nc(N2CC3(C2)CS(=O)(=O)C3)cc(C(F)(F)F)c1C#N [Example 4, (S)-6-(2,2-dioxa-2-thioxa-6-azaspiro[3.3]heptan-6-yl)-2-(2-methylazetidine-1-yl)-4-(trifluoromethyl)nicotinonitrile] | 198
C[C@H]1[C@H](O)CN1c1nc(N2CC3(CC(C(=O)O)C3)C2)cc(C(F)(F)F)c1C#N [Example 5, 2-(5-cyano-6-((2S,3R)-3-hydroxy-2-methylazetidine-1-yl)-4-(trifluoromethyl)pyridin-2-yl)-2-azaspiro[3.3]heptan-6-carboxylic acid] | 110
C[C@H]1CCN1c1nc(N2C[C@@H]3[C@@H](CC(=O)O)[C@@H]3C2)cc(C(F)(F)F)c1C#N [Example 8, 2-((1R,5S,6R)-3-(5-cyano-6-((S)-2-methylazetidine-1-yl)-4-(trifluoromethyl)pyridin-2-yl)-3-azabicyclo[3.1.0]hexan-6-yl)acetic acid] | 0.17
CC(C(=O)O)[C@H]1[C@@H]2CN(c3cc(C(F)(F)F)c(C#N)c(N4CC[C@@H]4C)n3)C[C@@H]21 (stereo partly drawn) [Example 10, (R)-2-((1R,5S,6R)-3-(5-cyano-6-((S)-2-methylazetidine-1-yl)-4-(trifluoromethyl)pyridin-2-yl)-3-azabicyclo[3.1.0]hexan-6-yl)propionic acid] | 12.6
C[C@H]1CCN1c1nc(N2CCC(CCC(=O)O)C2)cc(C(F)(F)F)c1C#N (stereo partly drawn) [Example 11, 3-(1-(5-cyano-6-((S)-2-methylazetidine-1-yl)-4-(trifluoromethyl)pyridin-2-yl)pyrrolidin-3-yl)propionic acid] | 12.6
C[C@H]1CCN1c1nc(N2CC3(CN(CC(=O)O)C3)C2)cc(C(F)(F)F)c1C#N [Example 15, (S)-2-(6-(5-cyano-6-(2-methylazetidine-1-yl)-4-(trifluoromethyl)pyridin-2-yl)-2,6-diazaspiro[3.3]heptan-2-yl)acetic acid] | 212
C[C@H]1CCN1c1nc(N2CCC3(CC(C(=O)O)C3)C2)cc(C(F)(F)F)c1C(N)=O (stereo partly drawn) [Example 16, (S)-6-(5-aminoformyl-6-(2-methylazetidine-1-yl)-4-(trifluoromethyl)pyridin-2-yl)-6-azaspiro[3.4]octan-2-carboxylic acid] | 6300
C[C@H]1CCN1c1nc(N2CC3(C2)CS(=O)(=O)C3)cc(C(F)(F)F)c1C(N)=O [Example 17, (S)-6-(2,2-dioxa-2-thioxa-6-azaspiro[3.3]heptan-6-yl)-2-(2-methylazetidine-1-yl)-4-(trifluoromethyl)nicotinamide] | > 10000

Second part, the molecule after the results:

IC50 [nM] | SMILES
27.9 | C[C@H]1CCN1c1nc(N2CC3(CC(C(=O)O)C3)C2)cc(C(F)(F)F)c1C#N [Example 1, (S)-2-(5-cyano-6-(2-methylazetidine-1-yl)-4-(trifluoromethyl)pyridin-2-yl)-2-azaspiro[3.3]heptan-6-carboxylic acid]
143 | C[C@H]1CCN1c1nc(N2CC3(CCC(C(=O)O)CC3)C2)cc(C(F)(F)F)c1C#N [Example 2, (S)-2-(5-cyano-6-(2-methylazetidine-1-yl)-4-(trifluoromethyl)pyridin-2-yl)-2-azaspiro[3.5]nonan-7-carboxylic acid]
115 | C[C@H]1CCN1c1nc(N2CCC3(CC2)CC(C(=O)O)C3)cc(C(F)(F)F)c1C#N [Example 3, (S)-7-(5-cyano-6-(2-methylazetidine-1-yl)-4-(trifluoromethyl)pyridin-2-yl)-7-azaspiro[3.5]nonan-2-carboxylic acid]
36 | C[C@H]1CCN1c1nc(N2CC3(CCC(C(=O)O)C3)C2)cc(C(F)(F)F)c1C#N (stereo partly drawn) [Example 7, 2-(5-cyano-6-((S)-2-methylazetidine-1-yl)-4-(trifluoromethyl)pyridin-2-yl)-2-azaspiro[3.4]octan-6-carboxylic acid]
27 | C[C@H]1CCN1c1nc(N2CC3(CC(CC(=O)O)C3)C2)cc(C(F)(F)F)c1C#N [Example 9, (S)-2-(2-(5-cyano-6-(2-methylazetidine-1-yl)-4-(trifluoromethyl)pyridin-2-yl)-2-azaspiro[3.3]heptan-6-yl)acetic acid]
